Results taken from paper PMC7811981 (European Journal of Drug Metabolism and Pharmacokinetics, 2020).
Read-outs that look alike come from different tables or passages of the source. Each block holds one molecule with its values, some of them ahead of it.

Assays:
P-gp = assay type: in vivo, healthy adults (human); conditions: human, not told, po
[1] = assay type: in vivo, healthy adults (human); conditions: for AUC(0-inf) / Cmax / Tmax / half-life / AUC(0-t): human, plasma; for AUC(0-t): Period 2: omadacycline with verapamil, linear mixed-effect model
[2] = phase I studies; cited from earlier work
P-glycoprotein (P-gp) = conditions: cited from earlier work
[3] = Safety and tolerability assessments; assay type: in vivo, healthy adults (human); conditions: for Safety and tolerability: healthy adults
[4] = period 2, single oral 240 mg verapamil ER; data not shown
[5] = Period 2/Period 1 (with verapamil / alone)

SMILES: CN(C)c1cc(CNCC(C)(C)C)c(O)c2c1C[C@H]1C[C@H]3[C@H](N(C)C)C(O)=C(C(N)=O)C(=O)[C@@]3(O)C(O)=C1C2=O [Omadacycline]
- bioavailability (P-gp): ~43.1%
- λz terminal phase rate constant, arithmetic mean (arithmetic coefficient of variation) ([1]; Period 1: omadacycline alone, 300 mg oral, N = 12): 0.1 (11.2) l/h
- AUC0–24, ratio of geometric LS mean [1, 5]: 118.5%
- AUC0–inf, ratio of geometric LS mean [1, 5]: 124.6%
- AUC0–t, ratio of geometric LS mean [1, 5]: 118.6%
- Cmax, ratio of geometric LS mean [1, 5]: 113.6%
- λz terminal phase rate constant, arithmetic mean (arithmetic coefficient of variation) ([1]; Period 2: omadacycline with verapamil ER 240 mg, N = 10): 0.05 (10.7) l/h
- Increase in systemic exposure to omadacycline (AUC0–24, AUC0–t, AUC0–inf, Cmax) ([1]; after single oral 240 mg verapamil ER compared with omadacycline alone): 14–25%
- Plasma concentrations measurable up to (last sampling time) ([1]; both treatment periods, all instances): 24 h
- Time postdose within which Cmax was attained (visual inspection) ([1]; both treatment periods, mean plasma concentration-time profiles): ≤ 3 h
- AUC(0-inf) ([1]; oral): 10800 ng·h/mL
- Cmax ([1]; oral): 607 ng/mL
- AUC(0-inf) ([1]; oral, 240 mg): 10800 ng·h/mL
- Cmax ([1]; oral, 240 mg): 596 ng/mL
- Tmax ([1]; oral, 240 mg): 2.8 h
- half-life ([1]; oral, 240 mg): 14 h
- AUC(0-inf) ([1]; oral, 300 mg): 8690 ng·h/mL
- Cmax ([1]; oral, 300 mg): 534 ng/mL
- AUC(0-t) ([1]; oral, AUC0–24, geometric LS mean, N = 10): 7340 ng·h/mL
- AUC(0-t) ([1]; oral, AUC0–t, geometric LS mean, N = 10): 7340 ng·h/mL
- AUC(0-inf) ([1]; po, 300 mg): 8690 ng·h/mL
- Cmax ([1]; po, 300 mg): 534 ng/mL
- Tmax ([1]; po, 300 mg): 2.8 h
- half-life ([1]; po, 300 mg): 12.7 h
- AUC measures (AUC0–24, AUC0–t, AUC0–inf) higher than omadacycline alone ([1]; period 2 (after verapamil) vs period 1): 18–25%
- Increase in geometric mean of AUC0–inf ([1]; verapamil dosing compared with omadacycline alone): 18–25%
- Increase in bioavailability by inhibition of P-gp (as much as) ([1]; with verapamil, relative increase): ≤ 25.0%
- Exposure of 300 mg oral dose versus 100 mg IV dose [2]: comparable exposure
- P-gp interaction (P-glycoprotein (P-gp); in vitro studies): substrate, but not as an inhibitor
- Propensity to permeate across the gastrointestinal (GI) tract (P-glycoprotein (P-gp); in vitro studies): low propensity to permeate
- P-gp interaction (P-glycoprotein (P-gp); in vitro transporter studies in CaCo cells): substrate of P-gp (but not an inhibitor or inducer)
- Clinical laboratory test results, vital sign measurements, physical examination findings, 12-lead ECG results ([3]; omadacycline alone and with verapamil ER): no clinically relevant findings
- Safety and tolerability ([3]; single oral 300 mg omadacycline plus 240 mg verapamil ER): safe and well tolerated
- Safety and tolerability ([3]; single oral dose 300 mg omadacycline alone): safe and well tolerated

- Plasma concentrations measurable from 2 h after administration up to (last sampling time) [4]: 24 h
SMILES: COc1ccc(CCN(C)CCCC(C#N)(c2ccc(OC)c(OC)c2)C(C)C)cc1OC (centres unmarked) [verapamil]
